From patent US7691925B2, “Pressure-sensitive adhesive composition, pressure-sensitive adhesive sheets and surface protecting film” (priority 2004, dated 2010)

Conditions: 1 part ionic liquid in 9 parts toluene, 25° C., naked eyes
Experimental: “Toluene-soluble” in the present invention means that an ionic liquid is soluble in toluene, more specifically, refers to such nature that an ionic liquid is uniformly dissolved in toluene upon preparation of a 10 weight % solution of an ionic-liquid in toluene.
9 Parts by weight of toluene (guaranteed grade manufactured by Wako Pure Chemical Industries, Ltd.) was added to 1 part by weight of an ionic liquid, and this was mixed and stirred under a normal temperature (25° C.) for 10 minutes, and allowed to stand for 30 minutes.
Thereafter, solubility was assessed with naked eyes, and toluene-solubility was determined. In assessment criteria, the state where no separated substance is observed, and a substance is uniformly dissolved was assessed as “soluble” (existence of toluene-solubility).

SMILES | Toluene-solubility
CCCCC[N+](CCCCC)(CCCCC)CCCCC.O=S(=O)([O-])C(F)(F)F [ionic liquid (1), tetra-n-pentylammonium trifluoromethanesulfonate] | possession of toluene-solubility was confirmed
CCCCCC[N+](CCCCCC)(CCCCCC)CCCCCC.O=S(=O)([O-])C(F)(F)F [ionic liquid (2), tetra-n-hexylammonium trifluoromethanesulfonate] | possession of toluene-solubility was confirmed
CCCCCCC[N+](CCCCCCC)(CCCCCCC)CCCCCCC.O=S(=O)([O-])C(F)(F)F [ionic liquid (3), tetra-n-heptylammonium trifluoromethanesulfonate] | possession of toluene-solubility was confirmed
CCCCCCCC[P+](CCCCCCCC)(CCCCCCCC)CCCCCCCC.O=S(=O)([O-])C(F)(F)F [ionic liquid (4), tetra-n-octylphosphonium trifluoromethanesulfonate] | possession of toluene-solubility was confirmed
CCCC[n+]1cccc(C)c1.O=S(=O)([N-]S(=O)(=O)C(F)(F)F)C(F)(F)F [ionic liquid (6), 1-butyl-3-methylpyridinium bis(trifluoromethanesulfon)imide, reference compound] | possession of toluene-solubility was not confirmed
